Experimental data as given in patent US10736857B2, “Treatment of pervasive developmental disorders with redox-active therapeutics” (PTC Therapeutics, Inc., priority 2008, dated 2020).

System: Human Dermal Fibroblasts from Autistic Patients (ASD fibroblasts)
Test: Rescue of ASD fibroblasts stressed by addition of L-buthionine-(S,R)-sulfoximine (BSO), Calcein AM viability read-out
Assay type: cell-based
Details: Fibroblast, 1 mM final BSO, 48 hours, Calcein AM fluorescence, viability relative to non-BSO treated fibroblasts (100%), tested three times, read-out: EC50, protection against ASD (rescue of BSO-stressed ASD fibroblasts)
Procedure: A screen was performed to identify compounds effective for the amelioration of ASD. Test samples, and solvent controls were tested for their ability to rescue ASD fibroblasts stressed by addition of L-buthionine-(S,R)-sulfoximine (BSO).
MEM (a medium enriched in amino acids and vitamins, catalog no. Gibco 11965) and Fetal Calf Serum were obtained from Invitrogen. Basic fibroblast growth factor and epidermal growth factor were purchased from PeproTech. Penicillin-streptomycin-glutamine mix, L-buthionine (S,R)-sulfoximine, and insulin from bovine pancreas were purchased from Sigma. Calcein AM was purchased from Molecular Probes. Cell culture medium (ATP) was made by combining 75 ml Fetal Calf Serum, 100 U/ml penicillin, 100 μg/ml streptomycin, 2 mM glutamine, 10 ng/ml EGF, and 10 ng/ml bFGF; MEM EBS was added to make the volume up to 500 ml. A 10 mM BSO solution was prepared by dissolving 444 mg BSO in 200 ml of medium with subsequent filter-sterilization. […]
100 μl of PBS containing 1.2 μM Calcein AM were then added to each well. […] After that time the PBS was discarded, the plate gently tapped on a paper towel and fluorescence (excitation/emission wavelengths of 485 nm and 525 nm, respectively) was read on a Gemini fluorescence reader. […]
The viability of non-BSO treated fibroblasts was set as 100%, and the viability of the BSO- and compound-treated cells was calculated as relative to this value.

SMILES	EC50
CCCCCCCCCC1=C(C)C(=O)C(C)=C(C)C1=O [2,3,5-trimethyl-6-nonylcyclohexa-2,5-diene-1,4-dione]	< 150 nM
CC(C)=CCC/C(C)=C/CC/C(C)=C/CCC(C)(O)CCC1=C(C)C(=O)C(C)=C(C)C1=O (centres unmarked) [2-(3-hydroxy-3,7,11,15-tetramethylhexadeca-6,10,14-trienyl)-3,5,6-trimethylcyclohexa-2,5-diene-1,4-dione]	< 150 nM
